Literature values as cited in patent US20250228825A1, “COMPOSITIONS OF RAPAMYCIN AND THEIR USE IN THE TREATMENT OF M[…] MALFORMATION” (priority 2021, published 2025).

Tested on: LM lesions
Details: patients with LM

CO[C@H]1C[C@@H]2CC[C@@H](C)[C@@](O)(O2)C(=O)C(=O)N2CCCC[C@H]2C(=O)O[C@H]([C@H](C)C[C@@H]2CC[C@@H](O)[C@H](OC)C2)CC(=O)[C@H](C)/C=C(\C)[C@@H](O)[C@@H](OC)C(=O)[C@H](C)C[C@H](C)/C=C/C=C/C=C/1C [sirolimus, rapamycin]
effectiveness (reported in another review): 84.5% | pooled clinical effectiveness (partial or complete response) (reported in one review): 94.9%
